# Experimental data as given in US9528090B2, “Differentiation of human embryonic stem cells” (Janssen Biotech, Inc., priority 2010, dated 2016).
# Key:
# [1] = system: human embryonic stem cells line H1; assay: Definitive endoderm differentiation of H1 cells, single cell seeding (GDF8/GSK3B inhibitor, MCDB-131): FACS for CXCR4 and CD9; format: cell-based; conditions: for % CXCR4 + CD9− / % CXCR4 − CD9+ / % CXCR4 − CD9−: day 4
# Procedure: Cells of the human embryonic stem cells line H1 (p40-p52) were seeded as single cells at a density of 100000 cells/cm^2 on MATRIGEL® (1:30 dilution) (BD Biosciences; Cat #356231)-coated dishes in MEF-CM (mouse embryonic fibroblast conditioned media) supplemented with 16 ng/ml of FGF2 (Catalog#100-18B, PeproTech, NJ) and 10 μM of Y27632 (Rock inhibitor, Catalogue#Y0503, Sigma, Mo.). 72 hrs post seeding, cultures were differentiated into definitive endoderm (DE) as follows: • a. […] MCDB-131 medium supplemented with 2% BSA, sodium bicarbonate, Glutamax, and 100 ng/ml GDF-8 for an additional three days. In some of the cultures, the cells were treated with the following concentrations of IGF (Catalogue#AF100, PeproTech, NJ): 0, 1, 10, 50, or 200 ng/ml. As a control, instead of BSA, 0.2% FBS (Catalogue#SH30070.03, Hyclone, UT) was used for day 1 of differentiation, and 2% FBS was used for days 2-4. Some of the FBS treated cultures were also treated with various concentrations of IGF. At day 4, samples were collected for FACS and gene expression analysis using real-time PCR.
# [2] = system: human embryonic stem cells line H1; assay: Definitive endoderm differentiation of H1 cells in FBS medium (GDF8/GSK3B inhibitor) with IGF or insulin: FACS and real-time PCR; format: cell-based; conditions: in the presence of FBS, 10-100 ng/ml, day 4
# Procedure: Cells of the human embryonic stem cells line H1 (p40-p52) were seeded as single cells at a density of 100000 cells/cm^2 on MATRIGEL® (1:30 dilution) (BD Biosciences; Cat #356231)-coated dishes in MEF-CM (mouse embryonic fibroblast conditioned media) supplemented with 16 ng/ml of FGF2 (Catalog#100-18B, PeproTech, NJ) and 10 μM of Y27632 (Rock inhibitor, Catalogue#Y0503, Sigma, Mo.). 72 hrs post seeding, cultures were differentiated into definitive endoderm (DE) as follows: • a. with MCDB-131 (Catalogue#10372-019, Invitrogen, CA) medium supplemented with 0.2% FBS (Catalogue#SH30070.03, Hyclone, UT), 0.0025 g/ml sodium bicarbonate (Catalogue #S3187, Sigma, Mo.), 1× GlutaMax™ (Catalogue #35050-079, Invitrogen, Ca) and 100 ng/ml GDF8 (Catalogue#120-00, PeproTech, NJ) plus 2.5 μM of the GSK3B inhibitor 14-Prop-2-en-1-yl-3,5,7,14,17,23,27-heptaazatetracyclo[19.3.1.1˜2,6˜0.1˜8,12˜]heptacosa-1(25),2(27),3,5,8(26),9,11,21,23-nonaen-16-one for one day, then • b. MCDB-131 medium supplemented with FBS, sodium bicarbonate, Glutamax, and 100 ng/ml GDF8 for an additional three days.
# 0.5% FBS was used for day 2 and 2% FBS was used for days 3-4. Besides regular FBS, heat treated FBS (Catalogue#F4135, Sigma, Mo.) and charcoal stripped treated FBS (Catalogue#F6765, Sigma, Mo.) were also tested. Some of the FBS treated cultures were also treated with various concentrations of IGF (10-100 ng/ml) or insulin (10-100 ng/ml).
# At day 4, samples were collected for analysis by FACS and real-time PCR.
# [3] = system: ES cells; conditions: 25 ng/ml of IGF added to 2% FBS, MEF-CM, activin A; cited from earlier work
# [4] = system: human embryonic stem cells line H1; assay: Definitive endoderm differentiation of H1 cells, single cell seeding (GDF8/GSK3B inhibitor): real-time PCR gene expression; format: cell-based
# Procedure: Cells of the human embryonic stem cells line H1 (p40-p52) were seeded as single cells at a density of 100000 cells/cm^2 on MATRIGEL® (1:30 dilution) (BD Biosciences; Cat #356231)-coated dishes in MEF-CM (mouse embryonic fibroblast conditioned media) supplemented with 16 ng/ml of FGF2 (Catalog#100-18B, PeproTech, NJ) and 10 μM of Y27632 (Rock inhibitor, Catalogue#Y0503, Sigma, Mo.). 72 hrs post seeding, cultures were differentiated into definitive endoderm (DE) as follows: • a. MCDB-131 (Catalogue#10372-019, Invitrogen, CA) medium supplemented with 2% fatty acid-free BSA (Catalog#68700, Proliant, IA), 0.0025 g/ml sodium bicarbonate (Catalogue #S3187, Sigma, Mo.), 1× GlutaMax™ (Catalogue #35050-079, Invitrogen, Ca) and 100 ng/ml GDF8 (Catalogue#120-00, PeproTech, NJ) plus 2.5 μM of the GSK3B inhibitor 14-Prop-2-en-1-yl-3,5,7,14,17,23,27-heptaazatetracyclo [19.3.1.1˜2,6˜0.1˜8,12˜]heptacosa-1(25),2(27),3,5,8(26),9,11,21,23-nonaen-16-one for one day, then • b. MCDB-131 medium supplemented with 2% BSA, sodium bicarbonate, Glutamax, and 100 ng/ml GDF-8 for an additional three days.
# In some of the cultures, the cells were treated with the following concentrations of IGF (Catalogue#AF100, PeproTech, NJ): 0, 1, 10, 50, or 200 ng/ml. As a control, instead of BSA, 0.2% FBS (Catalogue#SH30070.03, Hyclone, UT) was used for day 1 of differentiation, and 2% FBS was used for days 2-4. Some of the FBS treated cultures were also treated with various concentrations of IGF.
# At day 4, samples were collected for FACS and gene expression analysis using real-time PCR.
# Cultures treated with medium supplemented with FBS were much more sensitive to the inhibitory effect of IGF. […] These observations was further supported by immuno fluorescence (IF) staining for the DE marker SOX17 (Catalogue #AF 1924, R & D systems, MN) (FIGS. 8-9).
# [5] = IGF 50-200 ng/ml, BSA treated cultures
substance,measurement,setting,value
IGF,% CXCR4 + CD9−,[1]; BSA + 1 ng/ml IGF,92%
same,% CXCR4 − CD9+,[1]; BSA + 1 ng/ml IGF,0.8%
same,% CXCR4 − CD9−,[1]; BSA + 1 ng/ml IGF,3%
same,% CXCR4 + CD9−,[1]; BSA + 10 ng/ml IGF,90%
same,% CXCR4 − CD9+,[1]; BSA + 10 ng/ml IGF,1.3%
same,% CXCR4 − CD9−,[1]; BSA + 10 ng/ml IGF,5.3%
same,% CXCR4 + CD9−,[1]; BSA + 50 ng/ml IGF,87%
same,% CXCR4 − CD9+,[1]; BSA + 50 ng/ml IGF,6%
same,% CXCR4 − CD9−,[1]; BSA + 50 ng/ml IGF,3.5%
same,% CXCR4 + CD9−,[1]; BSA + 200 ng/ml IGF,79%
same,% CXCR4 − CD9+,[1]; BSA + 200 ng/ml IGF,10%
same,% CXCR4 − CD9−,[1]; BSA + 200 ng/ml IGF,8%
same,% CXCR4 + CD9−,[1]; FBS + 1 ng/ml IGF,89%
same,% CXCR4 − CD9+,[1]; FBS + 1 ng/ml IGF,3%
same,% CXCR4 − CD9−,[1]; FBS + 1 ng/ml IGF,3.6%
same,% CXCR4 + CD9−,[1]; FBS + 10 ng/ml IGF,87%
same,% CXCR4 − CD9+,[1]; FBS + 10 ng/ml IGF,6.4%
same,% CXCR4 − CD9−,[1]; FBS + 10 ng/ml IGF,3.3%
same,% CXCR4 + CD9−,[1]; FBS + 50 ng/ml IGF,78%
same,% CXCR4 − CD9+,[1]; FBS + 50 ng/ml IGF,6.8%
same,% CXCR4 − CD9−,[1]; FBS + 50 ng/ml IGF,13.2%
same,% CXCR4 + CD9−,[1]; FBS + 200 ng/ml IGF,70%
same,% CXCR4 − CD9+,[1]; FBS + 200 ng/ml IGF,13.4%
same,% CXCR4 − CD9−,[1]; FBS + 200 ng/ml IGF,12.9%
same,CXCR4+CD9− cells,[1]; [5],drop in expression
same,CXCR4−CD9+ fraction,[1]; [5],increase in expression
same,CXCr4+CD9− fraction,"[1]; increasing doses of IGF, FBS treated versus BSA treated cultures",more significant drop
same,expression of the pluripotency marker NANOG,[2],upregulated
same,markers associated with definitive endoderm such as SOX17 and CCXR4,[2],dose dependently down regulated
same,decrease of the expression of SOX17,[3],approximately 70%
same,"expression of markers associated with definitive endoderm (FOXA2, SOX17, CER1, CXCR4)","[4]; 1-200 ng/ml of IGF, BSA treated cultures, versus no IGF",did not significantly affect
same,expression of the embryonic marker NANOG,[4]; 50-200 ng/ml of IGF,did increase expression
same,"expression of SOX17, HNF3B and CXCR4","[4]; FBS supplemented cultures, increasing IGF",decreased with increasing concentration
